Measured values as given in US20230064809A1, “SUBSTITUTED AMINOQUINOLONES AS DGKALPHA INHIBITORS FOR IMMUNE ACTIVATION” (Bayer Aktiengesellschaft, priority 2019, published 2023).

Biological target: DGKα (Homo sapiens, UniProt P23743)
Test: Human DGKα kinase activity inhibition assay (ADP-Glo)
Format: biochemical
Parameters: made in house; host or cells: Sf9 insect cells, baculovirus
Details: in vitro, C-terminally FLAG-tagged recombinant full-length human DGKα, 1,2-dioleoyl-sn-glycerol substrate, ADP-Glo readout
Method: Human DGKα Kinase Activity Inhibition Assay. Human DGKα inhibitory activity of compounds of the present invention was quantified employing the human DGKα kinase activity assay as described in the following paragraphs. In essence, the enzyme activity was measured by quantification of the adenosine-di-phosphate (ADP) generated as a co-product of the enzyme reaction via the “ADP-Glo™ Kinase Assay” kit from the company Promega. This detection system works as follows: In a first step the ATP not consumed in the kinase reaction is quantitatively converted to […] (“ADP-Glo-reagent”), then the adenylate cyclase is stopped and the ADP generated in the kinase reaction converted to ATP, which subsequently generates in a luciferase-based reaction a glow-luminescence signal (“Kinase Detection Reagent”). C-terminally FLAG-tagged, recombinant full-length human DGKα (expressed in baculovirus infected insect cells, purified using anti-Flag pulldown and size exclusion chromatography as described below, DGKa_hu_1) was used as enzyme. As substrate for the kinase 1,2-dioleoyl-sn-glycerol, reconstituted in octyl-β-D-glucopyranoside micelles, was used. For the preparation of the micelles, 1 volume of a 16.1 mM solution of 1,2-dioleoyl-sn-glycerol (Avanti, Cat. #08001-25G) in chloroform was slowly evaporated using a nitrogen stream. Subsequently, 22.55 volumes of a 510 mM solution of octyl-β-D-glucopyranoside (Sigma-Aldrich, Cat. #08001-10G) in 50 mM MOPS buffer (pH 7.4) were added, and the mixture was sonicated in an ultrasonic bath for 20 s. Then 35 volumes of 50 mM MOPS buffer (pH 7.4) were added to yield a solution of 0.28 mM 1,2 dioleoyl-sn-glycerol and 200 mM octyl-β-D-glucopyranoside, which was aliquoted, flash-frozen in liquid nitrogen, and stored at −20° C. until use. For each experiment, a fresh aliquot was quickly thawed and diluted 24-fold with aqueous assay buffer (described below) containing 95.7 μM adenosine triphosphate (Promega) to yield a 1.67-fold concentrated substrate solution. For the assay 50 nl of a 100-fold concentrated solution of the test compound in dimethyl sulfoxide (DMSO, Sigma) was pipetted into either a white 1536-well or a white low-volume 384-well microtiter plate (both Greiner Bio-One, Frickenhausen, Germany). […] The concentration of DGK a was adjusted depending of the activity of the enzyme lot and was chosen appropriate to have the assay in the linear range, a typical concentration is about 0.1 nM. The reaction was stopped by the addition of 2.5 μl of “ADP-Glo-reagent” (1 to 1.5 diluted with water) and the resulting mixture was incubated at 22° C. for 1 h to convert the ATP no t consumed in the kinase reaction completely to […]. […] The amount of emitted light was taken as a measure for the amount of ADP generated and thereby for the activity of the DGKα.

DGKα, sequence (P23743 with tags, fused parts or gaps): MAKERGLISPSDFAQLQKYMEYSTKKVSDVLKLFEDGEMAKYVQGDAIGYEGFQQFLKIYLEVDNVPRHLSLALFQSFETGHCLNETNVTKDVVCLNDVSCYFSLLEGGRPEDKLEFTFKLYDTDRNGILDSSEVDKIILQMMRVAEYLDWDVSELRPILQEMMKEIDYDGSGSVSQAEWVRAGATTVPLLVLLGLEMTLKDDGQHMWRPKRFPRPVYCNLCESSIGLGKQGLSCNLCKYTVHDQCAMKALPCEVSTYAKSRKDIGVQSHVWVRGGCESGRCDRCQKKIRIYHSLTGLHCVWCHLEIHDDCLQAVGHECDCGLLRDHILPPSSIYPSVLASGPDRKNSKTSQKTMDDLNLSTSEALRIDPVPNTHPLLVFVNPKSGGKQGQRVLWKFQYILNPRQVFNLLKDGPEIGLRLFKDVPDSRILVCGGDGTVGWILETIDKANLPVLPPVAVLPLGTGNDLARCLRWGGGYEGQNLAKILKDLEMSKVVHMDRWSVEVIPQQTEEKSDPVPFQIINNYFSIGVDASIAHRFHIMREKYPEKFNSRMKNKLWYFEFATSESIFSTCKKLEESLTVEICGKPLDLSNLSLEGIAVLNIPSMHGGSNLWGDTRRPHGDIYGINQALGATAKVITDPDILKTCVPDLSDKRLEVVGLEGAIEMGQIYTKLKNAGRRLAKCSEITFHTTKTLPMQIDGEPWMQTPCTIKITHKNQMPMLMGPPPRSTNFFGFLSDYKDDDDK

Structure (SMILES) | IC50
COc1ccc(N2CC3(CCN(c4c(C#N)c(=O)n(C)c5ccccc45)C3)C2)cc1 [Example 5, 4-[2-(4-methoxyphenyl)-2,6-diazaspiro[3.4]octan-6-yl]-1-methyl-2-oxo-1,2-dihydro-quinoline-3-carbonitrile] | 0.103 µM
Cn1c(=O)c(C#N)c(N2CC3(CCN(c4ccc(F)cc4)C3)C2)c2ccccc21 [Example 7, 4-[6-(4-fluorophenyl)-2,6-diazaspiro[3.4]octan-2-yl]-1-methyl-2-oxo-1,2-dihydroquinoline-3-carbonitrile] | 0.063 µM
Cn1c(=O)c(C#N)c(N2CCC3(CCN(c4cccc(OC(F)(F)F)c4)C3)CC2)c2ccccc21 [Example 12, 1-methyl-2-oxo-4-{2-[3-(trifluoromethoxy)phenyl]-2,8-diazaspiro[4.5]decan-8-yl}-1,2-dihydroquinoline-3-carbonitrile] | 0.05 µM
CN(C)c1ccccc1N1CCC2(CCN(c3c(C#N)c(=O)n(C)c4ccccc34)CC2)C1 [Example 13, 4-{2-[2-(dimethylamino)phenyl]-2,8-diazaspiro[4.5]decan-8-yl}-1-methyl-2-oxo-1,2-dihydroquinoline-3-carbonitrile] | 0.051 µM
Cn1c(=O)c(C#N)c(N2CCC3(CCN(c4ccccc4OC(F)(F)F)C3)CC2)c2ccccc21 [Example 14, 1-methyl-2-oxo-4-{2-[2-(trifluoromethoxy)phenyl]-2,8-diazaspiro[4.5]decan-8-yl}-1,2-dihydroquinoline-3-carbonitrile] | 0.061 µM
COc1ccc(N2CCC3(CCN(c4c(C#N)c(=O)n(C)c5ccccc45)CC3)C2)cc1 [Example 15, 4-[2-(4-methoxyphenyl)-2,8-diazaspiro[4.5]decan-8-yl]-1-methyl-2-oxo-1,2-dihydro-quinoline-3-carbonitrile] | 0.091 µM
Cn1c(=O)c(C#N)c(N2CCC3(CCN(c4ccc(OC(F)(F)F)cc4)C3)C2)c2ccccc21 (stereo not shown) [Example 19, 1-methyl-2-oxo-4-{7-[4-(trifluoromethoxy)phenyl]-2,7-diazaspiro[4.4]nonan-2-yl}-1,2-dihydroquinoline-3-carbonitrile] | 0.122 µM
COc1cccc(N2CC3(CCN(c4c(C#N)c(=O)n(C)c5ccccc45)C3)C2)c1 [Example 20, 4-[2-(3-methoxyphenyl)-2,6-diazaspiro[3.4]octan-6-yl]-1-methyl-2-oxo-1,2-dihydroquinoline-3-carbonitrile] | 0.155 µM
CN(C)c1ccc(N2CC3(CCN(c4c(C#N)c(=O)n(C)c5ccccc45)C3)C2)cc1 [Example 21, 4-{2-[4-(dimethylamino)phenyl]-2,6-diazaspiro[3.4]octan-6-yl}-1-methyl-2-oxo-1,2-dihydroquinoline-3-carbonitrile] | 0.163 µM
Cn1c(=O)c(C#N)c(N2CCC3(CN(c4ccc(N5CCCC5=O)cc4)C3)C2)c2ccccc21 [Example 22, 1-methyl-2-oxo-4-{2-[4-(2-oxopyrrolidin-1-yl)phenyl]-2,6-diazaspiro[3.4]octan-6-yl}-1,2-dihydroquinoline-3-carbonitrile] | 0.477 µM
Cn1c(=O)c(C#N)c(N2CCC3(CCN(c4ccc(F)cc4)C3)C2)c2ccccc21 (stereo not shown) [Example 23, 4-[7-(4-fluorophenyl)-2,7-diazaspiro[4.4]nonan-2-yl]-1-methyl-2-oxo-1,2-dihydro-quinoline-3-carbonitrile] | 0.532 µM
Cn1c(=O)c(C#N)c(N2CCC3(CN(c4ccc(N5CCOCC5)cc4)C3)C2)c2ccccc21 [Example 24, 1-methyl-4-{2-[4-(morpholin-4-yl)phenyl]-2,6-diazaspiro[3.4]octan-6-yl}-2-oxo-1,2-dihydroquinoline-3-carbonitrile] | 1.7 µM
Cn1c(=O)c(C(N)=O)c(N2CCC3(CN(c4ccc(F)cc4)C3)C2)c2ccccc21 [Example 27, 4-[2-(4-fluorophenyl)-2,6-diazaspiro[3.4]octan-6-yl]-1-methyl-2-oxo-1,2-dihydroquinoline-3-carboxamide] | 0.158 µM
CN(C)c1ccc(N2CC3(CCN(c4c(C(N)=O)c(=O)n(C)c5ccccc45)C3)C2)cc1 [Example 28, 4-{2-[4-(dimethylamino)phenyl]-2,6-diazaspiro[3.4]octan-6-yl}-1-methyl-2-oxo-1,2-dihydroquinoline-3-carboxamide] | 1.72 µM

Stronger by IC50, values ahead:

IC50 | Structure (SMILES)
0.042 µM | Cn1c(=O)c(C(N)=O)c(N2CCC3(CN(c4ccc(Cl)cc4)C3)C2)c2ccccc21 [Example 26, 4-[2-(4-chlorophenyl)-2,6-diazaspiro[3.4]octan-6-yl]-1-methyl-2-oxo-1,2-dihydroquinoline-3-carboxamide]
0.039 µM | Cn1c(=O)c(C#N)c(N2CCC3(CCN(c4ccc(F)c(F)c4)C3)CC2)c2ccccc21 [Example 3, 4-[2-(3,4-difluorophenyl)-2,8-diazaspiro[4.5]decan-8-yl]-1-methyl-2-oxo-1,2-dihydro-quinoline-3-carbonitrile]
0.038 µM | Cn1c(=O)c(C#N)c(N2CCC3(CCN(c4ccc(F)cc4)C3)CC2)c2ccccc21 [Example 2, 4-[2-(4-fluorophenyl)-2,8-diazaspiro[4.5]decan-8-yl]-1-methyl-2-oxo-1,2-dihydroquinoline-3-carbonitrile]
0.035 µM | Cn1c(=O)c(C#N)c(N2CCC3(CN(c4ccc(F)cc4)C3)C2)c2ccccc21 [Example 4, 4-[2-(4-fluorophenyl)-2,6-diazaspiro[3.4]octan-6-yl]-1-methyl-2-oxo-1,2-dihydroquinoline-3-carbonitrile]
0.034 µM | Cn1c(=O)c(C#N)c(N2CCC3(CCN(c4ccccc4)C3)CC2)c2ccccc21 [Example 1, 1-methyl-2-oxo-4-(2-phenyl-2,8-diazaspiro[4.5]decan-8-yl)-1,2-dihydroquinoline-3-carbonitrile]
0.028 µM | CN(C)c1cccc(N2CCC3(CCN(c4c(C#N)c(=O)n(C)c5ccccc45)CC3)C2)c1 [Example 11, 4-{2-[3-(dimethylamino)phenyl]-2,8-diazaspiro[4.5]decan-8-yl}-1-methyl-2-oxo-1,2-dihydroquinoline-3-carbonitrile]
0.019 µM | Cn1c(=O)c(C#N)c(N2CC3(CCN(c4ccc(OC(F)(F)F)cc4)C3)C2)c2ccccc21 [Example 18, 1-methyl-2-oxo-4-{6-[4-(trifluoromethoxy)phenyl]-2,6-diazaspiro[3.4]octan-2-yl}-1,2-dihydroquinoline-3-carbonitrile]
0.018 µM | COc1ccccc1N1CCC2(CCN(c3c(C#N)c(=O)n(C)c4ccccc34)CC2)C1 [Example 10, 4-[2-(2-methoxyphenyl)-2,8-diazaspiro[4.5]decan-8-yl]-1-methyl-2-oxo-1,2-dihydro-quinoline-3-carbonitrile]
0.017 µM | Cn1c(=O)c(C#N)c(N2CCC3(CCN(c4ccc(OC(F)(F)F)cc4)C3)CC2)c2ccccc21 [Example 8, 1-methyl-2-oxo-4-{2-[4-(trifluoromethoxy)phenyl]-2,8-diazaspiro[4.5]decan-8-yl}-1,2-dihydroquinoline-3-carbonitrile]
0.015 µM | Cn1c(=O)c(C#N)c(N2CC3(CCCN(c4ccc(F)cc4)C3)C2)c2ccccc21 [Example 16, 4-[6-(4-fluorophenyl)-2,6-diazaspiro[3.5]nonan-2-yl]-1-methyl-2-oxo-1,2-dihydro-quinoline-3-carbonitrile]
0.011 µM | COc1cccc(N2CCC3(CCN(c4c(C#N)c(=O)n(C)c5ccccc45)CC3)C2)c1 [Example 9, 4-[2-(3-methoxyphenyl)-2,8-diazaspiro[4.5]decan-8-yl]-1-methyl-2-oxo-1,2-dihydro-quinoline-3-carbonitrile]
0.01 µM | Cn1c(=O)c(C#N)c(N2CCC3(CN(c4ccc(Cl)cc4)C3)C2)c2ccccc21 [Example 6, 4-[2-(4-chlorophenyl)-2,6-diazaspiro[3.4]octan-6-yl]-1-methyl-2-oxo-1,2-dihydroquinoline-3-carbonitrile]
0.0035 µM | Cn1c(=O)c(C#N)c(N2CCC3(CN(c4ccc(OC(F)(F)F)cc4)C3)C2)c2ccccc21 [Example 17, 1-methyl-2-oxo-4-{2-[4-(trifluoromethoxy)phenyl]-2,6-diazaspiro[3.4]octan-6-yl}-1,2-dihydroquinoline-3-carbonitrile]
0.003 µM | Cn1c(=O)c(C(N)=O)c(N2CCC3(CCN(c4ccc(OC(F)(F)F)cc4)C3)CC2)c2ccccc21 [Example 25, 1-methyl-2-oxo-4-{2-[4-(trifluoromethoxy)phenyl]-2,8-diazaspiro[4.5]decan-8-yl}-1,2-dihydroquinoline-3-carboxamide]
